Results reported in patent US20070128217A1 (priority 2003, published 2007).

Assays:
[1] = tested on: antibodies in sera from SARS patients (sera 1a, 1b, 2, 6, 37, 62, London, SARS-yellow, SARS-green); type: binding, human; set-up: Binding of serum 6 to linear peptides of protein X1 of SARS-CoV Urbani / Binding of serum 37 to linear peptides of protein X1 of SARS-CoV Urbani / Binding of serum 6 to looped/cyclic peptide (PEPSCAN-ELISA) / Binding of serum 37 to looped/cyclic peptide (PEPSCAN-ELISA) / Binding of serum 37 to looped/cyclic peptides of protein X1 of SARS-CoV Urbani / Binding of serum 6 to linear peptides of protein X2 / Binding of serum 37 to linear peptides of protein X2 / Binding of serum 37 to looped/cyclic peptides of protein X2 of SARS-CoV Urbani / Binding of serum 6 to linear peptides of protein M of SARS-CoV Urbani / Binding of serum 37 to linear peptides of protein M of SARS-CoV Urbani / Binding of serum 6 to looped/cyclic peptides of protein M of SARS-CoV Urbani / Binding of serum 37 to looped/cyclic peptides of protein M of SARS-CoV Urbani / Binding of serum 6 to linear peptides of protein X3 of SARS-CoV Urbani / Binding of serum 37 to linear peptides of protein X3 of SARS-CoV Urbani / Binding of serum 37 to looped/cyclic peptides of protein X3 of SARS-CoV Urbani / Binding of serum 6 to linear peptides of protein X4 of SARS-CoV Urbani / Binding of serum 37 to linear peptides of protein X4 of SARS-CoV Urbani / Binding of serum 37 to looped/cyclic peptides of protein X4 of SARS-CoV Urbani / Binding of serum 6 to linear peptides of protein X5 of SARS-CoV Urbani / Binding of serum 37 to linear peptides of protein X5 of SARS-CoV Urbani / Binding of serum 37 to looped/cyclic peptides of protein X5 of SARS-CoV Urbani / Binding of serum 6 to linear peptides of protein N of SARS-CoV Urbani / Binding of serum 37 to linear peptides of protein N of SARS-CoV Urbani / Binding of serum 6 to linear peptide (PEPSCAN-ELISA) / Binding of serum 1a to looped/cyclic peptides of protein N of SARS-CoV Urbani / Binding of serum 1b to looped/cyclic peptides of protein N of SARS-CoV Urbani / Binding of serum 2 to looped/cyclic peptides of protein N of SARS-CoV Urbani / Binding of serum 6 to looped/cyclic peptides of protein N of SARS-CoV Urbani / Binding of serum 37 to looped/cyclic peptides of protein N of SARS-CoV Urbani / Binding of serum 62 to looped/cyclic peptides of protein N of SARS-CoV Urbani / Binding of serum London to looped/cyclic peptides of protein N of SARS-CoV Urbani / Binding of serum SARS-green to looped/cyclic peptides of protein N of SARS-CoV Urbani: unit not given here
[2] = tested on: control sera (pooled serum of ten healthy LUMC hospital workers; commercial negative donor pooled serum from the Dutch bloodbank); type: binding, human; set-up: Binding of Control serum LUMC to linear peptides / Binding of Control serum Blood-bank to linear peptides / Binding of Control serum LUMC to looped peptides / Binding of Control Serum Blood-Bank to Looped peptides / Binding of Control serum LUMC to linear peptides of the protein M of SARS-CoV Urbani / Binding of Control serum Blood-bank to linear peptides of the protein M of SARS-CoV Urbani / Binding of Control serum LUMC to looped peptides of the protein M of SARS-CoV Urbani / Binding of Control Serum Blood-Bank to Looped peptides of the protein M of SARS-CoV Urbani: unit not given here
[3] = tested on: rabbit serum obtained by immunizing a rabbit with the SARS-CoV strain Frankfurt 1; type: binding; set-up: Binding of a rabbit serum to linear peptides / Binding of a rabbit serum to looped peptides / Rabbit serum linear peptides / Rabbit serum looped peptides / Binding of a rabbit serum to linear peptides of protein N of SARS-CoV Urbani (Rabbit serum linear peptides) / Binding of a rabbit serum to looped/cyclic peptides of protein N of SARS-CoV Urbani (Rabbit serum looped peptides): unit not given here

| Sequence | Binding of serum 1a to linear peptides of protein X2 [1] | Binding of serum 1a to looped/cyclic peptides of protein X2 of SARS-CoV Urbani [1] | Binding of serum 1b to linear peptides of protein X2 [1] | Binding of serum 1b to looped/cyclic peptides of protein X2 of SARS-CoV Urbani [1] | Binding of serum 2 to linear peptides of protein X2 [1] | Binding of serum 2 to looped/cyclic peptides of protein X2 of SARS-CoV Urbani [1] | Binding of serum 6 to linear peptides of protein X2 [1] | Binding of serum 6 to looped/cyclic peptides of protein X2 of SARS-CoV Urbani [1] | Binding of serum 37 to linear peptides of protein X2 [1] | Binding of serum 37 to looped/cyclic peptides of protein X2 of SARS-CoV Urbani [1] | Binding of serum 62 to linear peptides of protein X2 [1] | Binding of serum 62 to looped/cyclic peptides of protein X2 of SARS-CoV Urbani [1] | Binding of serum London to linear peptides of protein X2 [1] | Binding of serum London to looped/cyclic peptides of protein X2 of SARS-CoV Urbani [1] | Binding of serum SARS-green to linear peptides of protein X2 [1] | Binding of serum SARS-green to looped/cyclic peptides of protein X2 of SARS-CoV Urbani [1] | Binding of Control Serum Blood-Bank to Looped peptides [2] | Binding of Control serum Blood-bank to linear peptides [2] | Binding of Control serum LUMC to linear peptides [2] | Binding of Control serum LUMC to looped peptides [2] | other results |
| --- | --- | --- | --- | --- | --- | --- | --- | --- | --- | --- | --- | --- | --- | --- | --- | --- | --- | --- | --- | --- | --- |
| SLLKTHRMCKYTQST | 0.8 | 0.3 | 0.6 | 0.2 | 0.6 | 0.1 | 0.6 | 0.2 | 0.6 | 0.3 | 0.7 | 0.4 | 0.6 | 0.2 | 0.7 | 0.1 | 0.4 | 0.9 | 0.8 | 0.4 | Binding of serum SARS-yellow to linear peptides of protein X2 [1]: 0.7; Binding of serum SARS-yellow to looped/cyclic peptides of protein X2 of SARS-CoV Urbani [1]: 0.2; Binding of a rabbit serum to linear peptides [3]: 0.3; Binding of a rabbit serum to looped peptides [3]: 0.3 |
| SLLKVTAFQHQNSKK | 0.4 | 0.3 | 0.0 | 0.2 | 0.1 | 0.1 | 0.0 | 0.1 | 0.4 | 0.2 | 0.1 | 0.4 | 0.1 | 0.1 | 0.0 | 0.1 | 0.4 | 0.2 | 0.0 | 0.3 | Binding of serum SARS-yellow to linear peptides of protein X2 [1]: 0.0; Binding of serum SARS-yellow to looped/cyclic peptides of protein X2 of SARS-CoV Urbani [1]: 0.2; Binding of a rabbit serum to linear peptides [3]: 0.1; Binding of a rabbit serum to looped peptides [3]: 0.3 |
| SLSLHKLLQTLVLKM | 0.6 | 0.5 | 0.5 | 0.5 | 0.3 | 0.3 | 0.5 | 0.9 | 0.4 | 0.4 | 0.5 | 0.5 | 0.4 | 1.2 | 0.6 | 0.3 | 0.6 | 0.4 | 0.3 | 0.7 | Binding of serum SARS-yellow to linear peptides of protein X2 [1]: 0.3; Binding of serum SARS-yellow to looped/cyclic peptides of protein X2 of SARS-CoV Urbani [1]: 0.7; Binding of a rabbit serum to linear peptides [3]: 0.1; Binding of a rabbit serum to looped peptides [3]: 0.4 |
| SNRNRFLYIIKLVFL |  |  |  |  |  |  |  |  |  |  |  |  |  |  |  |  |  |  |  |  | Binding of serum 1a to linear peptides of protein M of SARS-CoV Urbani [1]: 0.6; Binding of serum 1b to linear peptides of protein M of SARS-CoV Urbani [1]: 0.5; Binding of serum 2 to linear peptides of protein M of SARS-CoV Urbani [1]: 0.4; Binding of serum 6 to linear peptides of protein M of SARS-CoV Urbani [1]: 0.5; Binding of serum 37 to linear peptides of protein M of SARS-CoV Urbani [1]: 0.4; Binding of serum 62 to linear peptides of protein M of SARS-CoV Urbani [1]: 0.4; Binding of serum London to linear peptides of protein M of SARS-CoV Urbani [1]: 0.3; Binding of serum SARS-green to linear peptides of protein M of SARS-CoV Urbani [1]: 0.4; Binding of serum SARS-yellow to linear peptides of protein M of SARS-CoV Urbani [1]: 0.3; Recognition of the peptide by sera of SARS-CoV infected individuals, and form (linear, looped/cyclic) in which it is recognized [1]: recognized in looped/cyclic form; Binding of Control Serum Blood-Bank to Looped peptides of the protein M of SARS-CoV Urbani [2]: 0.7; Binding of Control serum Blood-bank to linear peptides of the protein M of SARS-CoV Urbani [2]: 0.7; Binding of Control serum LUMC to linear peptides of the protein M of SARS-CoV Urbani [2]: 0.7; Binding of Control serum LUMC to looped peptides of the protein M of SARS-CoV Urbani [2]: 0.9; Rabbit serum linear peptides [3]: 0.5; Rabbit serum looped peptides [3]: 0.6 |
| SPKFTTSLSLHKLLQ | 0.6 | 0.5 | 0.4 | 0.5 | 0.4 | 0.3 | 0.4 | 0.4 | 0.5 | 0.3 | 0.5 | 0.5 | 0.4 | 0.2 | 0.5 | 0.2 | 0.5 | 0.5 | 0.3 | 0.6 | Binding of serum SARS-yellow to linear peptides of protein X2 [1]: 0.3; Binding of serum SARS-yellow to looped/cyclic peptides of protein X2 of SARS-CoV Urbani [1]: 0.3; Binding of a rabbit serum to linear peptides [3]: 0.3; Binding of a rabbit serum to looped peptides [3]: 0.5 |
| SPKLFIRQEEVQQEL |  |  |  |  |  |  |  |  |  |  |  |  |  |  |  |  | 0.6 | 0.5 | 0.5 | 0.8 | Binding of serum 1a to linear peptides of protein X4 of SARS-CoV Urbani [1]: 0.7; Binding of serum 1a to looped/cyclic peptides of protein X4 of SARS-CoV Urbani [1]: 0.8; Binding of serum 1b to linear peptides of protein X4 of SARS-CoV Urbani [1]: 0.5; Binding of serum 1b to looped/cyclic peptides of protein X4 of SARS-CoV Urbani [1]: 0.6; Binding of serum 2 to linear peptides of protein X4 of SARS-CoV Urbani [1]: 0.3; Binding of serum 2 to looped/cyclic peptides of protein X4 of SARS-CoV Urbani [1]: 0.7; Binding of serum 6 to linear peptides of protein X4 of SARS-CoV Urbani [1]: 0.4; Binding of serum 6 to looped/cyclic peptides of protein X4 of SARS-CoV Urbani [1]: 0.6; Binding of serum 37 to linear peptides of protein X4 of SARS-CoV Urbani [1]: 0.7; Binding of serum 37 to looped/cyclic peptides of protein X4 of SARS-CoV Urbani [1]: 0.8; Binding of serum 62 to linear peptides of protein X4 of SARS-CoV Urbani [1]: 0.7; Binding of serum 62 to looped/cyclic peptides of protein X4 of SARS-CoV Urbani [1]: 0.6; Binding of serum London to linear peptides of protein X4 of SARS-CoV Urbani [1]: 0.7; Binding of serum London to looped/cyclic peptides of protein X4 of SARS-CoV Urbani [1]: 0.4; Binding of serum SARS-green to linear peptides of protein X4 of SARS-CoV Urbani [1]: 0.8; Binding of serum SARS-green to looped/cyclic peptides of protein X4 of SARS-CoV Urbani [1]: 0.2; Binding of serum SARS-yellow to linear peptides of protein X4 of SARS-CoV Urbani [1]: 0.5; Binding of serum SARS-yellow to looped/cyclic peptides of protein X4 of SARS-CoV Urbani [1]: 0.5; Rabbit serum linear peptides [3]: 0.5; Rabbit serum looped peptides [3]: 0.0 |
